We go through eight compounds from patent publication US20150297772A1, “COMPOSITION FOR ODOR REMOVAL AND FRAGRANCE EMISSION COMPRISING COMPLEXES OF CUCURBITURIL AND FRAGRANCE” (POSTECH ACADEMY-INDUSTRY FOUNDATION, priority 2012, published 2015).

Series [1] in a line: complex formation of cucurbituril homologues with menthol, analyzed by 1H-NMR. Type of series: binding. To be noted: slurry with 11.8 mg menthol and 0.5 mL distilled water, molar ratio 1:1, dried complex. On the procedure:
A complex was prepared by mixing 100 mg of cucurbit[7]uril and 11.8 mg of menthol at a molar ratio of 1:1. 79.5 mg of cucurbit[6]uril and 118.3 mg of cucurbit[8]uril were respectively put into two mortars, and 11.8 mg of menthol was added to each of the mortars. 0.5 mL of distilled water was added to form a slurry, and then the slurry was stirred for 10 minutes using a pestle to prepare a complex. The complex was dried in an oven at […] for 6 hours. The dried complex was analyzed by 1H-NMR.

The nature of series [2]: exchange of fragrant molecule for odor molecule in cucurbit[7]uril complex, evaluated by 1H-NMR. Type of series: binding. How it is done:
Cucurbit[7]uril was dissolved in distilled water to obtain a 2 mM cucurbit[7]uril aqueous solution. Ethyl butyrate (2 mM), which is a fragrant material, was added to the solution to obtain a complex (cucurbit[7]uril:ethyl butyrate=1:1). The bonding of diallyldisulfide with cucurbituril according to the addition of diallyldisulfide, which is an odor material, and the release of ethyl butyrate according to the addition of diallyldisulfide were evaluated comparing the 1H-NMR peak of the complex after the addition of diallyldisulfide with the 1H-NMR peak of the complex before the addition of diallyldisulfide.
Cucurbit[7]uril was dissolved in distilled water to obtain a 4 mM cucurbit[7]uril aqueous solution. Menthol (4 mM), which is a fragrant material, was added to the solution to obtain a complex (cucurbit[7]uril:menthol=1:1). The bonding of diaminohexane with cucurbituril according to the addition of diaminohexane, which is an odor material, and the release of menthol according to the addition of diaminohexane were evaluated comparing the 1H-NMR peak of the complex after the addition of diaminohexane with the 1H-NMR peak of the complex before the addition of diaminohexane.
Cucurbit[7]uril was dissolved in distilled water to obtain a 4 mM cucurbit[7]uril aqueous solution. Hexanal (4 mM), which is a fragrant material, was added to the solution to obtain a complex (cucurbit[7]uril:hexanal=1:1). The bonding of diaminohexane with cucurbituril according to the addition of diaminohexane, which is an odor material, and the release of hexanal according to the addition of diaminohexane were evaluated comparing the 1H-NMR peak of the complex after the addition of diaminohexane with the 1H-NMR peak of the complex before the addition of diaminohexane.

For series [3] the following is noted: cited from earlier work.

Consider `O=C1N2CN3C(=O)N4CN5C(=O)N6CN7C(=O)N8CN9C(=O)N%10CN%11C(=O)N%12CN1C1C2N2CN%13C(=O)N(CN%14C(=O)N(CN%15C(=O)N(CN%16C(=O)N(CN%17C(=O)N(CN1C2=O)C%12C%11%17)C%10C9%16)C8C7%15)C6C5%14)C4C3%13` (stereo not shown) [cucurbit[6]uril], for which, in series [1], the “complex formation with menthol (FIG. 2)” value is recorded as “barely makes a complex with menthol”.

With `O=C1N2CN3C(=O)N4CN5C(=O)N6CN7C(=O)N8CN9C(=O)N%10CN%11C(=O)N%12CN%13C(=O)N%14CN%15C(=O)N%16CN1C1C2N2CN%17C(=O)N(CN%18C(=O)N(CN%19C(=O)N(CN%20C(=O)N(CN%21C(=O)N(CN%22C(=O)N(CN%23C(=O)N(CN1C2=O)C%16C%15%23)C%14C%13%22)C%12C%11%21)C%10C9%20)C8C7%19)C6C5%18)C4C3%17` (stereo not shown) [cucurbit[8]uril], the “complex formation with menthol (FIG. 2)” value in series [1] is reported as “weakly makes a complex with menthol”.

Turning to `C=CCSSCC=C` [diallydisulfide, diallyldisulfide], the “bonding of diallyldisulfide with cucurbituril (FIG. 3)” value in series [2] (added to cucurbit[7]uril:ethyl butyrate=1:1 complex, 2 mM aqueous solution) is “makes a complex with cucurbituril”.

Take `NCCCCCCN` [diaminohexane]: the “bonding of diaminohexane with cucurbituril (FIG. 5)” value in series [2] (added to cucurbit[7]uril:hexanal=1:1 complex, 4 mM aqueous solution) is on record as “makes a complex with cucurbituril”. Further, in series [2] (added to cucurbit[7]uril:menthol=1:1 complex, 4 mM aqueous solution), the “bonding of diaminohexane with cucurbituril (FIG. 4)” value is “makes a complex with cucurbituril”.

In the case of `CCCC(=O)OCC` [ethyl butyrate], the “release of ethyl butyrate from the complex (FIG. 3)” value in series [2] (cucurbit[7]uril:ethyl butyrate=1:1, 2 mM aqueous solution, diallyldisulfide added) was “released from the complex”.

`CCCCCC=O` [hexanal]: the “release of hexanal from the complex (FIG. 5)” value in series [2] (cucurbit[7]uril:hexanal=1:1, 4 mM aqueous solution, diaminohexane added) is recorded as “released from the complex”.

In the case of `CC1CCC(C(C)C)C(O)C1` (stereo not shown) [menthol], in series [2] (cucurbit[7]uril:menthol=1:1, 4 mM aqueous solution, diaminohexane added), the “release of menthol from the complex (FIG. 4)” value was “released from the complex”.

As for cucurbit[7]uril, the “complex formation with menthol (FIG. 2)” value in series [1] is on record as “strongly makes a complex with menthol”. The solubility in water in series [3] is listed as 2˜3×10^−2 M.
